The text below walks through data of a melting point compilation (Tetko et al.; mined from patent text by program, amines drawn as free bases though some values may be those of a salt).

Where only a bound is given, the exact number is not on record here.

As usually defined, the melting point is the temperature of the solid-liquid transition. Molecule `CN1CCCN(C)P1(=O)Cc1ccc(NC(=O)C2=Cc3cc(-c4ccccc4)ccc3CC2)cc1` had a melting point of 249 to 250 °C. With `CC1(C)C(=O)N(c2ccc(C#N)c(C(F)(F)F)c2)C(=O)N1C(=O)c1ccccc1` the figure was 179 to 180 °C; with `O=C1Nc2ccccc2C12COc1cc3c(cc12)OCCO3` (centres undefined), over 250 °C.

In the case of `CC1(C)CC(C)(c2ccc(Oc3ccc([N+](=O)[O-])cc3)cc2)c2cc(Oc3ccc([N+](=O)[O-])cc3)ccc21` (centres undefined), the melting point lay within 214 to 216 °C. With `CC(C)(C)C(NC(=O)c1cc(Cl)cc(Cl)c1)Nc1c(Nc2cncc(C(F)(F)F)c2)c(=O)c1=O` (centres undefined) the figure was 233 to 234 °C; with `CCCN1C=CC=C2C(=O)NC(c3ccccc3OCC)N=C21` (centres undefined), 134 to 137 °C; with `CCOC(=O)c1c[nH]c2c(cc(Cl)c3c(=O)c(C(=O)OCC)c[nH]c32)c1=O`, 285 to 288 °C. With `COc1cnn(-c2ccc(C)cc2)n1` the figure was 65 to 67 °C. `CCCCCCCCCCCCCCCCCC(=O)Nc1cccc(N(CC(=O)OC)CC(=O)OC)c1` gave a melting point of 78 to 79 °C.

As to `OC(COc1ccc(-c2cc[nH]n2)cc1)CN1CCN(c2ccc(Cl)cc2)CC1` (centres undefined), the melting point fell in the range of 211 to 212 °C. Under `CCOC(=O)N1CCc2c(cnc3nc(/C=C4/C(=O)N5C(C(=O)O)=CS[C@H]45)nn23)C1` stands over 250 °C; under `CCC1(CCCCN2CC=C(c3ccc(Cl)cc3)CC2)C(=O)Nc2ccccc21` (centres undefined), 142 to 145 °C.

Consider `CCCC1=C(C#N)C(c2cccc(Cl)c2Cl)c2c[nH]nc2N1` (centres undefined), for which the melting point amounted to 242 °C.

`Cc1ccc(NS(=O)(=O)c2ccccc2)cc1NC(=O)Cc1ccc(C#N)cc1`: the melting point was 120 to 122 °C. Under `COc1cc(NC(C)=O)c(Cl)cc1C(=O)N=[N+]=[N-]` stands 135 to 140 °C. With `COC(=O)c1sc(C(F)(F)F)cc1OCc1ccccc1` the figure was 52 to 53.5 °C; with `CC(C)(C)OC(=O)NCCOCCOCCNC(=O)CCCCC1SCC2NC(=O)NC21` (centres undefined), 106 to 108 °C. Under `CC1(C)C=C(c2ncccn2)c2cc(C#N)ccc2O1` stands 108 to 110 °C; under `N#Cc1ccc(C=C2CCCN(C(=O)c3ccc(Cl)cc3)C2)cc1`, over 210 °C.

In turn, `O=C1C2CCCN2S(=O)(=O)N1CSc1nnnn1-c1ccccc1` (centres undefined) had a melting point of 99.5 to 100 °C. As to `Cc1nnc([C@H](Nc2ccc(C#N)c(Cl)c2C)[C@H](C)O)o1`, the melting point was 181 to 183 °C.

Turning to `Cc1c(C#N)oc2c(c1=O)COc1ccccc1-2`, the melting point is 179 to 181 °C.

In turn, `CCCCCC(C)C(C)c1cc(O)c2c(c1)OC(C)(C)C1=C2CN(C(C)C(=O)NC(N)=O)CC1` (centres undefined) had a melting point of 95 to 100 °C.

Take `O=c1c(-c2ccccc2)c(SCc2ccncc2)oc2cc(OCc3ccccc3)ccc12`: the melting point lay in the range of 169 to 170 °C. With `C#CCC(O)(c1cncnc1)C(C)(C)C` (centres undefined) the figure was 174 to 176 °C; with `CCCCc1nc2c(N)nc3cc(-c4ccsc4)ccc3c2n1CC(C)C`, 229 to 230 °C. `Brc1ccc(CC2=NCCN2)c2ccccc12` yielded a melting point of 133 to 135 °C. `CN1CC(=O)N2[C@H](c3ccc(O)c(O)c3)c3[nH]c4ccccc4c3C[C@@H]2C1=O` registered a melting point of 224 to 226 °C.

`O=C(CCCOc1ccc2nc3[nH]c(=O)[nH]c3cc2c1)NC1CCCC1` showed a melting point of over 320 °C. With `CCC(CC)Nc1c([N+](=O)[O-])cc(C)c(Cl)c1[N+](=O)[O-]` the figure was 61 to 62.5 °C; with `Fc1ccccc1-c1ccc(Cl)nn1`, 95 to 96 °C; with `CC(C)c1ccc(C(C)(C)C)c(O)c1C(=O)Nc1ccc(S(=O)(=O)C(F)(F)F)cc1Cl`, 116 °C.

`COC(=O)Cn1c2c(c3ccccc3c1=O)C(=O)c1ccccc1-2` yielded a melting point of 248 to 251 °C.

`O=C1NCNCC1(c1ccccc1)c1ccccn1` (centres undefined) showed a melting point of 201 to 203 °C.
